Measured values as given in ChEMBL document CHEMBL1130447, “Two-ring DNA minor-groove binders consisting of readily available, di-substituted benzene derivatives” (Bioorg Med Chem Lett, 1997).

Tests used:
Type in all cases: nucleic-acid assay
Nucleic Acid [1] = assay: The compound was tested for its binding affinity to Poly (dG-dC) by using ethidium displacement assay
Nucleic Acid [2] = assay: The compound was tested for its binding affinity to Poly (dA-dT) by using ethidium displacement assay
Nucleic Acid [3] = assay: The compound was tested for its binding affinity to T4 ethidium displacement assay
Nucleic Acid [4] = assay: The compound was tested for its binding affinity to calf thymus DNA by using ethidium displacement assay; conditions: Bos taurus

C50 (Nucleic Acid [1])	C50 (Nucleic Acid [2])	C50 (Nucleic Acid [3])	C50 (Nucleic Acid [4])	SMILES
77.3 µM	23.5 µM	35.2 µM	44.8 µM	CN(C)CCCNC(=O)Nc1ccc(NC(=O)c2ccc(C(=O)NCCCN(C)C)cc2)cc1
142 µM	1.9 µM	27.1 µM	31.9 µM	CN(C)CCCNC(=O)c1ccc(C(=O)Nc2cccc(NC(=O)CCCN(C)C)c2)cc1
2.8 µM	0.17 µM	–	–	C[n+]1ccc(Nc2ccc(NC(=O)c3ccc(Nc4cc[n+](C)c5ccccc45)cc3)cc2)cc1
55.6 µM	28.4 µM	35.6 µM	47.3 µM	CN(C)CCCNC(=O)c1cccc(C(=O)Nc2ccc(NC(=O)CCCN(C)C)cc2)c1
5.7 µM	0.9 µM	–	–	N=C(N)c1ccc(/N=N/Nc2ccc(C(=N)N)cc2)cc1
222 µM	4.2 µM	28.6 µM	43.5 µM	CN(C)CCCNC(=O)Nc1cccc(NC(=O)c2ccc(C(=O)NCCCN(C)C)cc2)c1

SMILES	C50 (Nucleic Acid [1])	C50 (Nucleic Acid [2])	C50 (Nucleic Acid [3])	C50 (Nucleic Acid [4])
CN1CCN(c2ccc3[nH]c(-c4ccc5[nH]c(-c6ccc(O)cc6)nc5c4)nc3c2)CC1	1.4 µM	0.2 µM	–	–
